Measurements published in patent US10570168B2, “2′ and/or 5′ amino-acid ester phosphoramidate 3′-deoxy adenosine derivatives as anti- cancer compounds” (NuCana plc, priority 2014, dated 2020).
Where two headings read alike, the source gives them in different places.

Experiments:
[1] = system: CCRF-CEM (TdT positive CEM); experiment: ATP (ViaLight plus) cytotoxicity assay; type: cell-based, Human; settings: for IC50: Homo sapiens, CCRF-CEM
Experimental: (§1) Certain compounds of the invention were subjected to further studies to test the cytotoxic activity of certain compounds of the invention and also to measure their activity against 4 haematological cancer cell lines • TdT positive CEM (Human ALL) • TdT negative K562 (Human CML) • TdT negative H1-60 (Human ANLL) • RL (CRL-2261) non-HD lymphoma • The concentrations of the active metabolite dATP (Cordycepin triphosphate) in these cell lines was also measured. • The cytotoxic activity and the intracellular 3′-dATP concentrations were also studied in the presence of hENT1, Adenosine Kinase (AK) and Adenosine Deaminase pharmacological inhibitors in CEM and RL cancer cell lines. Said inhibitors that mimic known cancer resistance mechanisms. Methods Cell Culture
(§2) HL-60 (ATCC® CCL-240™), K562 (ATCC® CCL-243™), CCRF-CEM (ATCC® CRM-CCL-119™) and RL (ATCC® CRL-2261™) leukaemia cell lines, obtained from the American Type Culture Collection (ATCC), Middlesex. HL-60 and K562 cell lines are deoxynucleotidyl transferase-negative (TdT-ve), whereas CCRF-CEM cell line is TdT+ve.
(§3) HL-60, K562, CCRF-CEM and RL cell lines were cultured in RPMI-1640 medium (Sigma Aldrich, UK), which were supplemented with 10% Fetal Bovine Serum (FBS) (PAA Laboratories), 1% amphotericin B (5.5 ml) and 1% penicillin/streptomycin (5.5 ml) (PAA Laboratories) and grown in flasks at 37° C. incubator with 5% CO2.
(§4) The amount of ATP was used as a measurement of cell number and cell viability. ATP ViaLight™ plus assay kit (Lonza, USA: Product No. LT07-121) to detect ATP in cells treated in luminescence compatible 96 well plates (initial concentration of cells was 1×10^4 cells/well) with cordycepin and ProTides at concentrations of: 0, 0.1, 0.5, 1, 5 and 10 μM, followed by incubation for 72 hours at 37° C. incubator with 5% CO2. For inhibitor studies, 10 μM of NBTI or 1 μM EHNA or A-134974 was added and left for 5 minutes before adding the drugs (see section 5 for inhibitor details).
(§5) After incubation, 50 μl of cell lysis reagent was added to the 96 well plates to release the intracellular ATP, followed by 100 μl of ATP monitoring reagent (AMR). The luminescent values of each well were determined using FLUOstar OPTIMA microplate reader (BMG Labtech) which convert ATP into light by using luciferase enzyme. Therefore, the amount of luminescence produced was directly proportional to the amount of ATP.
(§6) Cell lines were treated in the same way as described above but before treatment with drugs, a number of inhibitors were added: • 1) Nitrobenzylthioinosine (NBTI) (Sigma-Aldrich, St. Louis, Mo., product # N2255) blocks nucleoside transporters • 2) EHNA hydrochloride (Sigma-Aldrich, St. Louis, Mo., product # E114) blocks adenosine deaminase • 3) Adenosine kinase inhibitor A-134974 dihydrochloride hydrate (Sigma-Aldrich, St. Louis, Mo., product # A2846): blocks adenosine kinase
(§7) The dose-response curves of cytotoxicity of the drugs was determined using non-linear regression analysis of percentage cell viability versus concentration and EC50 values were obtained. The intracellular assay was conducted in five replicates for each condition. Intracellular assay was determined using paired t test (two-tailed) analysis of 3′ATP/ATP concentration and p-values were obtained. For all the analysis, Prism Software program (GraphPad Software) was used and Microsoft Powerpoint® 2013 was used to plot the results.

RL (CRL-2261) = experiment: ATP (ViaLight plus) cytotoxicity assay; type: cell-based
Experimental: as §1, §2, §3, §4, §5, §6, §7

K562 (TdT negative) = experiment: ATP (ViaLight plus) cytotoxicity assay; type: cell-based, Human; settings: for IC50: Homo sapiens; for (FD) fold difference compared to Cordycepin = Cordycepin IC50/ProTide IC50: K562
Experimental: as §1, §2, §3, §4, §5, §7

HL-60 (TdT negative) = experiment: ATP (ViaLight plus) cytotoxicity assay; type: cell-based, Human; settings: for (FD) fold difference compared to Cordycepin = Cordycepin IC50/ProTide IC50: HL-60; for IC50: Homo sapiens
Experimental: as §1, §2, §3, §4, §5, §7

KG1a cells = experiment: Annexin V/propidium iodide in vitro apoptosis assay (LD50); type: cell-based; settings: 72 h
Experimental: The KG1a cell line was maintained in RPMI medium (Invitrogen, Paisley, UK) supplemented with 100 units/ml penicillin, 100 μg/ml streptomycin and 20% foetal calf serum. Cells were subsequently aliquoted (10^5 cells/100 μl) into 96-well plates and were incubated at 37° C. in a humidified 5% carbon dioxide atmosphere for 72 h in the presence of nucleoside analogues and their respective proTides at concentrations that were experimentally determined for each series of compounds. In addition, control cultures were carried out to which no drug was added. Cells were subsequently harvested by centrifugation and were analyzed by flow cytometry using the Annexin V assay.
Cultured cells were harvested by centrifugation and then resuspended in 195 μl of calcium-rich buffer. Subsequently, 5 μl of Annexin V (Caltag Medsystems, Botolph Claydon, UK) was added to the cell suspension and cells were incubated in the dark for 10 mins prior to washing. Cells were finally resuspended in 190 μl of calcium-rich buffer together with 10 μl of propidium iodide. Apoptosis was assessed by dual-colour immunofluorescent flow cytometry as described previously.
The data obtained in these experiments were evaluated using one way ANOVA. […] LD50 values were calculated from the non-linear regression and line of best-fit analysis of the sigmoidal dose-response curves. […]

[2] = system: leukaemic stem cell (LSC) compartment within the KG1a cell line; experiment: Immunophenotypic identification of the leukaemic stem cell compartment; type: cell-based; settings: 72 h
Experimental: KG1a cells were cultured for 72 h in the presence of a wide range of concentrations of each compound assayed. Cells were then harvested and labelled with a cocktail of anti-lineage antibodies (PE-cy7), anti-CD34 (FITC), anti-CD38 (PE) and anti-CD123 (PERCP cy5). The sub-population expressing a LSC phenotype were subsequently identified and were expressed as a percentage of all viable cells left in the culture. The percentages of stem cells remaining were then plotted on a dose-response graph and the effects of the compounds were compared with each other, and with the parent nucleoside.
The data obtained in these experiments were evaluated using one way ANOVA. All data was confirmed as Gaussian or a Gaussian approximation using the omnibus K2 test. LD50 values were calculated from the non-linear regression and line of best-fit analysis of the sigmoidal dose-response curves. All statistical analyses were performed using Graphpad Prism 6.0 software (Graphpad Software Inc., San Diego, Calif.).

[3] = CEM, with AK (adenosine kinase inhibitor A-134974, 1 μM)
[4] = CEM, with EHNA 1 μM (adenosine deaminase blocker)
[5] = CEM, with NBTI 10 μM (nucleoside transporter blocker)
[6] = CRL, with AK (adenosine kinase inhibitor A-134974, 1 μM)
[7] = CRL, with EHNA 1 μM (adenosine deaminase blocker)
[8] = CRL, with NBTI 10 μM (nucleoside transporter blocker)

| Compound | (FD) fold difference compared to control ([1]; CEM, IC50 with AK inhibitor) | (FD) fold difference compared to control ([1]; CEM, IC50 with EHNA) | (FD) fold difference compared to control ([1]; CEM, IC50 with NBTI) | IC50 ([1]; 72 h, CEM (TdT+ve), 72 hours) | IC50 ([1]; CEM, Control (no inhibitor)) | IC50 [1, 3] | IC50 [1, 4] | IC50 [1, 5] | IC50 (RL (CRL-2261); 72 h, CRL (RL, CRL-2261)) | IC50 (RL (CRL-2261); CRL, Control (no inhibitor)) | (FD) fold difference compared to control (RL (CRL-2261); CRL, IC50 with AK inhibitor) | (FD) fold difference compared to control (RL (CRL-2261); CRL, IC50 with EHNA) | (FD) fold difference compared to control (RL (CRL-2261); CRL, IC50 with NBTI) | IC50 (RL (CRL-2261); [6]) | IC50 (RL (CRL-2261); [7]) | IC50 (RL (CRL-2261); [8]) | IC50 (K562 (TdT negative); K562, 72 h) | (FD) fold difference compared to Cordycepin = Cordycepin IC50/ProTide IC50 (HL-60 (TdT negative)) | IC50 (HL-60 (TdT negative); HL-60, 72 h) | (FD) fold difference compared to Cordycepin = Cordycepin IC50/ProTide IC50 ([1]; CEM (TdT+ve)) | further results |
| --- | --- | --- | --- | --- | --- | --- | --- | --- | --- | --- | --- | --- | --- | --- | --- | --- | --- | --- | --- | --- | --- |
| C[C@H](NP(=O)(OC[C@@H]1C[C@@H](O)[C@H](n2cnc3c(N)ncnc32)O1)Oc1cccc2ccccc12)C(=O)OCc1ccccc1 (stereo partly drawn) [B, (2S)-benzyl 2-(((((2S,4R,5R)-5-(6-amino-9H-purin-9-yl)-4-hydroxytetrahydrofuran-2-yl)methoxy)(naphthalen-1-yloxy)phosphoryl)amino)propanoate] | (1) | (1) | (1) | 0.13 µM | 0.9 µM | 1.3 µM | 1.3 µM | 1.4 µM | 0.4 µM | 3.1 µM | (1) | (2) | (1) | 2.8 µM | 5.2 µM | 2.6 µM | 0.21 µM | (4) | 2.6 µM | – | – |
| C[C@H](NP(=O)(OC[C@@H]1CC(O)[C@H](n2cnc3c(N)ncnc32)O1)Oc1ccccc1)C(=O)OCc1ccccc1 (stereo partly drawn) [Compound A, 3′-deoxyadenosine-5′-O-[phenyl(benzyloxy-L-alaninyl)] phosphate] | (3) | (2.2) | (1) | 0.87 µM | 1.4 µM | 3.6 µM | 3.1 µM | 2 µM | 2.1 µM | 3.6 µM | (3) | (1) | (1) | 10.2 µM | 2.9 µM | 2.6 µM | 2.4 µM | (3) | 4.6 µM | (22) | in vitro drug sensitivity / potency (LD50 comparison, FIG. 1) (KG1a cells): increased in vitro potency when compared to Cordycepin; reduction of LSCs as a proportion of the cancer cells in culture (ability to target LSCs) ([2]; Lin−/CD34+/CD38−/CD123+): preferentially target cancer stem cells; LSC targeting compared with the parent nucleoside ([2]; for compound A at 1 mM and above): significantly greater than that of the parent compound; (FD) fold difference compared to Cordycepin = Cordycepin IC50/ProTide IC50 (RL (CRL-2261); CRL (RL, CRL-2261)): (12); (FD) fold difference compared to Cordycepin = Cordycepin IC50/ProTide IC50 (K562 (TdT negative)): (5) |
| Nc1ncnc2c1ncn2[C@@H]1O[C@H](CO)C[C@H]1O [Cordycepin, 3′-deoxyadenosine, reference compound] | (3) | – | (5) | – | – | – | – | – | – | – | – | – | – | – | – | – | – | – | – | – | IC50 ([1]; 72 h, CEM (TdT+ve), 72 hours, read-out: IC50): 19.5 µM; IC50 ([1]; CEM, Control (no inhibitor), read-out: IC50): 11.5 µM; IC50 ([1]; CEM, with AK (adenosine kinase inhibitor A-134974, 1 μM), read-out: IC50): 29.2 µM; IC50 ([1]; CEM, with EHNA 1 μM (adenosine deaminase blocker), read-out: IC50): 0.7 µM; IC50 ([1]; CEM, with NBTI 10 μM (nucleoside transporter blocker), read-out: IC50): 57.7 µM; IC50 (RL (CRL-2261); 72 h, CRL (RL, CRL-2261), 72 hours, read-out: IC50): 24.5 µM; IC50 (RL (CRL-2261); CRL, Control (no inhibitor), read-out: IC50): 7.3 µM; IC50 (RL (CRL-2261); CRL, with AK (adenosine kinase inhibitor A-134974, 1 μM), read-out: IC50): 28.6 µM; IC50 (RL (CRL-2261); CRL, with EHNA 1 μM (adenosine deaminase blocker), read-out: IC50): 13.2 µM; IC50 (RL (CRL-2261); CRL, with NBTI 10 μM (nucleoside transporter blocker), read-out: IC50): 17.9 µM; IC50 (K562 (TdT negative); K562, 72 hours, read-out: IC50): 10.9 µM; IC50 (HL-60 (TdT negative); HL-60, 72 hours, read-out: IC50): 11.4 µM |
| COC(=O)C(C)(C)NP(=O)(OC[C@@H]1C[C@@H](O)[C@H](n2cnc3c(N)ncnc32)O1)Oc1cccc2ccccc12 (stereo partly drawn) [E, Methyl 2-(((((2S,4R,5R)-5-(6-amino-9H-purin-9-yl)-4-hydroxytetrahydrofuran-2-yl)-methoxy)(naphthalen-1-yloxy)phosphoryl)amino)-2-methylpropanoate] | (1) | (1) | (2) | 10 µM | 9.9 µM | 10.3 µM | 13.4 µM | 17.1 µM | 11 µM | 8.2 µM | (1) | (1) | (1) | 7.1 µM | 5.9 µM | 8.2 µM | 13.9 µM | (1) | 10.2 µM | (2) | (FD) fold difference compared to Cordycepin = Cordycepin IC50/ProTide IC50 (RL (CRL-2261); CRL (RL, CRL-2261)): (2); (FD) fold difference compared to Cordycepin = Cordycepin IC50/ProTide IC50 (K562 (TdT negative)): (1) |
| CCOC(=O)CCc1ccccc1OP(=O)(N[C@@H](C)C(=O)OCc1ccccc1)OC[C@@H]1C[C@@H](O)[C@H](n2cnc3c(N)ncnc32)O1 (stereo partly drawn) [F, (2S)-benzyl 2-(((((2S,4R,5R)-5-(6-amino-9H-purin-9-yl)-4-hydroxytetrahydrofuran-2-yl)methoxy)(2-(3-ethoxy-3-oxopropyl)phenoxy)phosphoryl)amino)propanoate] | – | – | – | 4.3 µM | – | – | – | – | 3.4 µM | – | – | – | – | – | – | – | 6.3 µM | (1) | 8.3 µM | (5) | (FD) fold difference compared to Cordycepin = Cordycepin IC50/ProTide IC50 (RL (CRL-2261); CRL (RL, CRL-2261)): (7); (FD) fold difference compared to Cordycepin = Cordycepin IC50/ProTide IC50 (K562 (TdT negative)): (2) |
